Tests used:
[1] = DHEA treatment in mice; cited from earlier work
[2] = test system: uterine weight of the immature mouse; test: Estrogenic effect: uterine weight of the immature mouse; type: in vivo, C57-WH mice
Experimental: Immature female C57-WH mice were maintained at 25° C. at 12 hours light/12 hours dark (lights on at 0800 h and off at 2000 h). Purina Lab Chow and water were available ad libitum. The control and each experimental group of animals consisted of six mice. Treatment began after an acclimation period of five days. Beginning at 27 days of age and continuing for three consecutive days, the mice were orally intubated with DHEA or β-MET suspended in sesame oil. The control mice received only sesame oil. Between 1400-1600 h on day 30, all animals were sacrificed by an overdose of ether. Uteri were removed, cleaned of adventitious tissue, and weighed to the nearest 0.5 mg.
All reported results are expressed as the mean plus or minus the standard error (mean±SE).

[3] = cited from earlier work
[4] = test system: thyroid stimulating hormone and thyroxine; settings: cited from earlier work
11β-hydroxylase = settings: cited from earlier work
fatty acid synthetase [5] = settings: prolonged treatment; mice with excessive levels of this enzyme; cited from earlier work
fatty acid synthetase [6] = settings: cited from earlier work
NADH oxidase = settings: cited from earlier work
[7] = test system: glucose-6-phosphate dehydrogenase (G6PD); settings: cited from earlier work
[8] = cited from earlier work; for deactivation and excretion from general circulation: once excreted from cells to the general circulation; for conjugation in blood stream: when excreted by individual cells to the blood stream
obesity [9] = settings: known; cited from earlier work
[10] = Short-term (thirty day) treatment with large doses in mice; type: in vivo, C57-WH mice
Experimental: Five male and five female C57-WH mice (age: ~11 weeks, weight: ~15 g each) each received 200 mg/kg of β-MET, suspended in sesame oil, by p.o. intubation every second day for a period of thirty days. Another group of ten matched controls received only the sesame oil. […] Abnormalities such as hypertrophic lymph nodes, diarrhea, bloody stools, or loss of hair luster were not seen.

Salmonella typhimurium = settings: alone and with liver homogenate fraction from rat treated with polychlorinated biphenyl
Experimental: β-MET was tested for mutagenicity by administration to a his^- auxotrophic mutant of Salmonella typhimurium.β-MET was administered alone and with a liver homogenate fraction from a rat that had been treated with polychlorinated biphenyl.

[11] = Cumulative food consumption of C57-WH mice treated with β-MET for 14 weeks; type: in vivo
Experimental: (§1) Forty C57-WH mice were maintained five per cage in a temperature-controlledroom (25° C.) with 12-h light/day (7:00 A.M. to 7:00 P.M.). All mice were at ten weeks of age when the experiment was begun.
(§2) The mice were divided into four groups: β-MET-treated female; control female; β-MET-treated male; and control male (for each group, n=10). All β-MET-treated animals received 0.07 mg (~4.6 mg/kg) of the β-MET administered as a suspension in sesame oil by PO intubation three times weekly. The control animals received only sesame oil. The mice were treated for a period of 14 weeks with access to Purina Laboratory chow and water ad libitum. Body weights were recorded weekly, and food consumption was determined by subtracting the food remaining from the food supplied at the beginning of each week.
(§3) Student's t-test was used in all statistical analyses of the data. Data are presented as means ±SD from the four groups of mice. Differences were considered significant at p<0.01.

[12] = Body weight of C57-WH mice treated with β-MET for 14 weeks; type: in vivo; settings: for mean weight after 14 weeks: 0.07 mg (~4.6 mg/kg) PO three times weekly, n=10; for significance of difference in mean weights versus control: significant at p<0.01
Experimental: as §1, §2, §3

[13] = Acute oral toxicity in mice (LD50); type: in vivo, C57-WH mice
Experimental: The LD50 of β-MET administered orally in mice could not be accurately determined. However, five male and five female C57-WH mice, each weighing approximately 15 g, received 200 mg of β-MET, suspended in sesame oil, by p.o. intubation.

obesity [14] = test: Anti-obesity efficacy in various mammalian systems (general statement); type: in vivo
[15] = 200 mg/kg p.o. every second day for thirty days

## C[C@]12CC[C@H](O)CC1=CC[C@@H]1[C@@H]2CC[C@]2(C)C(=O)CC[C@@H]12 [DHEA, dehydroepiandrosterone]
[1]
  lipogenesis and fat cell size: decreases in lipogenesis and fat cell size
[2]; daily dose 400.0 mg/kg, oral, three consecutive days from day 27, mean±SE, control 58.0 ± 3
  Uterine weight: 257.0 ± 5 mg/100 g body weight
[3]; in vivo
  toxicity in humans: relatively low toxicity in humans
[3]; long-term administration, humans
  estrogenic and androgenic effects: Estrogenic and androgenic effects
[4]; rat studies
  thyroid follicle epithelium: hypertrophy of the thyroid follicle epithelium
[4]; rat, in vivo
  levels of thyroid stimulating hormone and thyroxine in the blood: known to increase levels of thyroid stimulating hormone and thyroxine in the blood
11β-hydroxylase
  inhibition of 11β-hydroxylase: known to inhibit 11β-hydroxylase
Fatty acid synthetase [5]
  liver and adipose tissue fatty acid synthetase activity: decrease liver and adipose tissue fatty acid synthetase activity
Fatty acid synthetase [6]
  inhibition of fatty acid synthetase: known to directly inhibit fatty acid synthetase
NADH oxidase
  inhibition of NADH oxidase: known inhibitor of NADH oxidase
[7]
  inhibition of mammalian G6PD: known to inhibit mammalian glucose-6-phosphate dehydrogenase

## C[C@]12CC[C@@H](O)C[C@H]1CC[C@@H]1[C@@H]2CC[C@]2(C)C(=O)CC[C@@H]12 [α-HET, 3α-hydroxyetiocholanone]
[8]
  deactivation and excretion from general circulation: rapidly deactivated and excreted from the body
  conjugation in blood stream: conjugated to glucuronic acid at the 3-hydroxy position
Obesity [9]
  anti-obesity effects attributed to DHEA: known to accomplish the anti-obesity effects attributed to DHEA

## C[C@]12CC[C@H](O)C[C@H]1CC[C@@H]1[C@@H]2CC[C@]2(C)C(=O)CC[C@@H]12 [β-HET, 5-β-androstan-3-β-ol-17-one]
[8]
  deactivation and excretion from general circulation: rapidly deactivated and excreted from the body
  conjugation in blood stream: conjugated to glucuronic acid at the 3-hydroxy position
Obesity [9]
  anti-obesity effects attributed to DHEA: known to accomplish the anti-obesity effects attributed to DHEA

## C[C@H]1CC[C@@]2(C)[C@H](CC[C@@H]3[C@@H]2CC[C@]2(C)C(=O)CC[C@@H]32)C1 [β-MET, 3-β-methyl-5-β-androstan-17-one]
[10]; [15]
  behavioral or external physical differences from controls: no obvious behavioral or external physical differences from controls
  hypertrophic lymph nodes, diarrhea, bloody stools, or loss of hair luster: not seen
  postmortem studies: no gross abnormalities or visible pathological changes
  survival and health: all experimental mice were alive and apparently healthy
[10]; approximately 20x the effective anti-obesity dose in mice
  harm by short-term treatment with relatively large doses: appears not to be harmful to mice
[10]; mouse, in vivo, po, 200 mg/kg
  examination of visible membranes: no abnormal findings
[2]; mouse, in vivo
  estrogenic activity: does not exhibit similar estrogenic activity
Salmonella typhimurium
  mutagenicity: not mutagenic
[11]; female, 14 weeks (FIG. 6)
  food intake versus control: not significantly different
[11]; male and female (FIG. 6)
  effect on appetite: without suppressing appetite
[11]; male, 14 weeks (FIG. 6)
  cumulative food consumption versus control: not significantly different
[12]; female, control female 26.1 g
  mean weight after 14 weeks: 21.8 g
[12]; female
  significance of difference in mean weights versus control: a significant difference in mean weights was observed after the third week of treatment
[12]; male and female C57-WH mice, 14 weeks (FIG. 5)
  inhibition of weight gain: significantly inhibits weight gain
[12]; male, control male 24.8 g
  mean weight after 14 weeks: 20.7 g
[12]; male
  significance of difference in mean weights versus control: statistically significant after the sixth week of treatment
[13]; 200 mg p.o. per ~15 g mouse, five male and five female
  survival: All of the animals survived
[13]; mouse, in vivo, po, mice, p.o. in sesame oil
  LD50: > 10000 mg/kg
Obesity [14]; comparison to 3β-HET
  inhibition of obesity in comparison to 3β-HET: much more effective inhibitor of obesity
Obesity [14]; various mammalian systems
  antiobesity efficacy and safety: safe and effective antiobesity agent
